Columns and labels:
[1] = Dimerization of linker element precursors in aqueous solution by MS and MS/MS; type: physicochemical
Procedure: The ability of precursors to linker elements to form dimers in aqueous solutions was determined by mass spectrometry (MS) and mass spectrometry/mass spectrometry (MS/MS). Linker elements that form dimers (or multimers) only as a result of the ionization during mass spectrometry can be distinguished from those that truly form dimers in aqueous solution by determination of the fragmentation during mass spectrometry/mass spectrometry.

CDK2 = CDK2 (Homo sapiens, UniProt P24941); conditions: read-out: DISSOCIATION CONSTANT (Kd); cited from earlier work
β CATENIN = target: T1, β CATENIN (Homo sapiens, UniProt P35222); conditions: read-out: DISSOCIATION CONSTANT (Kd); cited from earlier work
T1 sequence (P35222 1-781): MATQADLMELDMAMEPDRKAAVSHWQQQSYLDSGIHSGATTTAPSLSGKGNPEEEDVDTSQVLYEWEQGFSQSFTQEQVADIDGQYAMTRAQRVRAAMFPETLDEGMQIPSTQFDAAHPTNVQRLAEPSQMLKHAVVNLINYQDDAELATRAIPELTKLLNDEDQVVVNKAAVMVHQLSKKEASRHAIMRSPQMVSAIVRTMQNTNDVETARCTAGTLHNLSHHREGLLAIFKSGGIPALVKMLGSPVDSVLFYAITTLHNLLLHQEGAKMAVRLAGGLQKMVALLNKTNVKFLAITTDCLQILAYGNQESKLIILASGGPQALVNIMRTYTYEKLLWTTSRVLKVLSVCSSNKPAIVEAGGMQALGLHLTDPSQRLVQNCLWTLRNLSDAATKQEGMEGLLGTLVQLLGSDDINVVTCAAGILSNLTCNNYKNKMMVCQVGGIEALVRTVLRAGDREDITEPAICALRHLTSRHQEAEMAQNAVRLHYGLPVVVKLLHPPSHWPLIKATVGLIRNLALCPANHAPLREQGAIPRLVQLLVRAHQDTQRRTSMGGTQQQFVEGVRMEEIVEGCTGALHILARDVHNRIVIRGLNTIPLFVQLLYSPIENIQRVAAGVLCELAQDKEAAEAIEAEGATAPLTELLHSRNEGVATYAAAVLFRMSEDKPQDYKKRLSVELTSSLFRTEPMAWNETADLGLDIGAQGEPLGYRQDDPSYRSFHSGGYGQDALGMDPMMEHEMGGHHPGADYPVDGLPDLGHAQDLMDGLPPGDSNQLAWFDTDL

CaMKII = conditions: read-out: DISSOCIATION CONSTANT (Kd); cited from earlier work
MEK1 = MEK1 (Homo sapiens, UniProt Q02750); conditions: read-out: DISSOCIATION CONSTANT (Kd); cited from earlier work
MEK2 = MEK2 (Homo sapiens, UniProt P36507); conditions: read-out: DISSOCIATION CONSTANT (Kd); cited from earlier work
ERK = conditions: read-out: DISSOCIATION CONSTANT (Kd); cited from earlier work
Bcl-xL = Bcl-xL (Homo sapiens, UniProt Q07817); conditions: read-out: DISSOCIATION CONSTANT (Kd); cited from earlier work
[2] = self-dimerization, MS and MS/MS
[3] = piperidin-2-ylmethanol with cyclohexylboronic acid

Sequence of Bcl-xL (Q07817 whole entry, species assumed): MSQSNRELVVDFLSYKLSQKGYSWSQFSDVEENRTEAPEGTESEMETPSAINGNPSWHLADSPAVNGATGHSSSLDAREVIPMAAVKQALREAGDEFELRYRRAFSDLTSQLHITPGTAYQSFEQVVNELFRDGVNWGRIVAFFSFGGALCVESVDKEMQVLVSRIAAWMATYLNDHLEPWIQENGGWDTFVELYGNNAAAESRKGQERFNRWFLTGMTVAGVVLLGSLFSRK

In the case of `O=C(CO)CO` [1,3-dihydroxyacetone], the “ability to form dimers in aqueous solution” value (shortened to “ability to form dimers”) [1, 2] is reported as “exists mostly as the monomer”.

In the case of `O=C1CCCCC1O` (stereo not shown) [2-hydroxycyclohexanone], the “ability to form dimers” value [1, 2] is reported as “forms a dimer”.

For `Cc1occc(=O)c1O` [3-hydroxy-2-methyl-4H-pyran-4-one], the “ability to form dimers” value ([1]; with zinc acetate, 2 molecules co-ordinating one Zn cation, MS/MS) was “form a dimer”.

In the case of `Nc1ncnc2c1ncn2[C@@H]1O[C@H](COP(=O)(O)OP(=O)(O)O)[C@@H](O)[C@H]1O` [ADP], the Kd (CDK2) is listed as 2.7 µM.

For `Nc1ncnc2c1ncn2[C@@H]1O[C@H](COP(=O)(O)OP(=O)(O)OP(=O)(O)O)[C@@H](O)[C@H]1O` [ATP], the Kd (CDK2) is given as 0.227 µM.

For `OB(O)C1CCCCC1` [cyclohexylboronic acid], the “ability to form dimers” value [1, 3] was “form a dimer”.

With `OCC1CCCCN1` (stereo not shown) [piperidin-2-ylmethanol] the “ability to form dimers” value [1, 3] was “form a dimer”.

In the case of APC: binding partner of β CATENIN, the Kd (β CATENIN) is given as 310 µM.

For Calmodulin, the Kd (CaMKII) is given as 0.03 µM.

In the case of ERK1: binding partner of MEK1, the Kd (MEK1) is listed as 29 µM.

For ERK2: binding partner of MEK2, the Kd (MEK2) is given as 9 µM.

In the case of MEK1: binding partner of ERK, the Kd (ERK) is given as 0.61 µM.

For cytochrome c: binding partner of Bcl-xL, the Kd (Bcl-xL) is listed as 0.12 µM.

From patent US8853185B2, “Coferons and methods of making and using them” (Cornell University, priority 2008, dated 2014)
